Key:
[1] = Phase 1 MAD study: CT1812 concentration in CSF; assay type: in vivo, human; conditions: humans, from CSF levels
From the text: CT1812 was quantitated in CSF using a validated LC-MS/MS method.

[2] = Phase 1 SAD study: safety assessments; assay type: in vivo, human
Description: Part A was a single ascending dose cohort study in which healthy, young subjects (less than 65 years old) received one dose of study drug in the morning after an overnight fast. Cohort dosing started at 10 mg and increased to 30 mg, 90 mg, 180 mg, 450 mg, and 1120 mg in subsequent cohorts. Six drug-treated and two placebo-treated subjects were randomized in each cohort. A seventh cohort of six subjects each received a single 90 mg dose of drug 30 min. after a meal. Following completion of all safety assessments and blood draws for PK analyses, subjects were discharged on Day 3.
Safety variables, including incidence of adverse events (AEs), vital signs, clinical laboratory findings, 12-lead electrocardiographs (ECGs), physical examination, and affective and cognitive measures (Part B only), were summarized for all subjects who received study drug.

[3] = molecular target: T1, Sigma-2/PGRMC1 receptor complex (Homo sapiens, UniProt Q5BJF2); test: Phase 1b/2a trial: pharmacokinetics and estimated brain receptor occupancy; assay type: in vivo; conditions: AD patients, 90-560 mg, day 28
T1 construct: from tissue; host or cells: brain of trial patients, in vivo (occupancy estimated from CSF drug concentration, not measured)
T1 sequence (Q5BJF2 whole entry, one chain of several): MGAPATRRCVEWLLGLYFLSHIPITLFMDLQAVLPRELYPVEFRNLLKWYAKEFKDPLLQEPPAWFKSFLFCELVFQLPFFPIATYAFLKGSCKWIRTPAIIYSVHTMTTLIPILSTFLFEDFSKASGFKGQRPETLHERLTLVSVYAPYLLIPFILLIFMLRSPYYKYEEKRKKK
Description: COG0102 clinical trial: This trial (ClinicalTrials.gov NCT02907567) was a randomized, double-blind, placebo-controlled clinical trial in mild to moderate Alzheimer's patients (MMSE 18-26) (See FIG. 1 for clinical trial design). The trial was conducted at six sites in Australia. Patients were randomized into placebo (n=5) or CT1812-treated groups: 90 mg (n=4), 280 mg (n=5) or 560 mg (n=5) and treated once daily for 28 days. Clinical chemistry was done at Sydpath (Sydney, AU). Pharmacokinetics were done at CPR Pharma Services (Adelaide, AU). Cerebrospinal fluid samples were taken at screening and day 21-28 of treatment and aliquoted. […] One set of CSF samples was analyzed for Alzheimer's disease biomarkers; protein measurements (Aβ42, Aβ40, total tau, tau phosphorylated at threonine 181 (phosphorylated tau), NFL and neurogranin) were performed using commercially available ELISA assays from Fujirebio according to the manufacturer's instructions (INNOTEST β-AMYLOID(1-42), INNOTEST β-AMYLOID(1-40), INNOTEST hTau Ag, INNOTEST PHOSPHO-TAU(181P), Uman Diagnostics NFL assay). Neurogranin was measured with a sandwich ELISA method using antibodies Ng2 and Ng22 developed at the University of Gotteborg (Kvartsberg et al. 2015). Identical aliquots of CSF, and plasma were analyzed for protein expression changes via LC/MSMS at Caprion (see below).

[4] = Phase 1 MAD study: cognitive testing in healthy elderly cohort; assay type: in vivo, human; conditions: 560 mg for 14 days (N = 7)
Description: The Alzheimer's Disease Assessment Scale-Cognition Subscale (ADAS-Cog 13) and a cognitive battery (including the category fluency test, controlled word association test, WMS-R digit span, digit symbol substitution test, and Rey Auditory Verbal Learning Test) were administered to subjects in the elderly cohort at baseline and on Day 14.

## CC(C)(C)Oc1cc(CCC(C)(C)N2Cc3ccc(S(C)(=O)=O)cc3C2)ccc1O [CT1812]
[1]
  blood-brain barrier penetration: penetrates the blood-brain barrier
[2]; SAD
  ECG: No ECG parameters or changes were assessed as clinically significant
  clinical laboratory results: no subjects with clinically significant laboratory results
[2]; SAD Total Active (n = 42)
  Number of Subjects with Treatment-Emergent AE: All TEAEs: 18
  Number of Subjects with Treatment-Emergent AE: Headache: 6
  Number of Subjects with Treatment-Emergent AE: Nausea: 6
[2]; SAD fasted 10 mg (n = 6)
  Number of Subjects with Treatment-Emergent AE: All TEAEs: 2
[2]; SAD fasted 30 mg (n = 6)
  Number of Subjects with Treatment-Emergent AE: All TEAEs: 4
  Number of Subjects with Treatment-Emergent AE: Headache: 3
  Number of Subjects with Treatment-Emergent AE: Nausea: 1
[2]; SAD fasted 180 mg (n = 6)
  Number of Subjects with Treatment-Emergent AE: All TEAEs: 2
[2]; SAD fasted 450 mg (n = 6)
  Number of Subjects with Treatment-Emergent AE: All TEAEs: 4
  Number of Subjects with Treatment-Emergent AE: Headache: 1
  Number of Subjects with Treatment-Emergent AE: Nausea: 2
[2]; SAD fasted 1120 mg (n = 6)
  Number of Subjects with Treatment-Emergent AE: All TEAEs: 4
  Number of Subjects with Treatment-Emergent AE: Headache: 1
  Number of Subjects with Treatment-Emergent AE: Nausea: 3
[2]; SAD fed 90 mg (n = 6)
  Number of Subjects with Treatment-Emergent AE: All TEAEs: 2
  Number of Subjects with Treatment-Emergent AE: Headache: 1
[2]; SAD, 10 mg to 1120 mg
  deaths or serious adverse events: no deaths or other serious adverse events
[2]; single dose 10 mg to 1120 mg, healthy subjects
  tolerability: well tolerated
[3]
  increase of plasma concentration with dose: approximately dose proportionally
[4]; Day 14, Day 0: 9.6 (4.2)
  COWAT (Trial 2), Mean (SD): 10.6 (5.1)
[4]; Day 14, Day 0: 11.3 (5.7)
  COWAT (Trial 1), Mean (SD): 12.6 (4.5)
[4]; Day 14, Day 0: 14.6 (5.7)
  COWAT (Trial 3), Mean (SD): 15.1 (3.7)
[4]; Day 14, Day 0: 17.3 (3.9)
  RAVLT, Mean (SD): 18.7 (3.1)
[4]; Day 14, Day 0: 17.9 (3.3)
  WMS-R (Digit Span), Mean (SD): 17.9 (3.3)
[4]; Day 14, Day 0: 18.4 (5.5)
  CFT, Mean (SD): 19.7 (2.4)
[4]; Day 14, Day 0: 78.3 (11.0)
  DSST, Mean (SD): 80 (9.6)

Reference: patent publication US20250177351A1, “ISOINDOLINE COMPOSITIONS AND METHODS FOR TREATING NEURODEGENERATIVE DISEASE” (Cognition Therapeutics, Inc., priority 2022, published 2025)
